Experiment [1] deals with TrkB pY816. Nature of the experiment: ELISA of TrkB phosphorylation (pY816) in neuronal cultures. The experiment is classed as cell-based, rat. To be noted: cortical and hippocampal cultures. The protocol: (§1) The phosphorylation of TrkB (pY816) and interaction with PLCγ1 were assessed by enzyme-linked immunosorbent assay (ELISA) as previously described[11],[80],[81] with minor modifications. Briefly, white 96-well plates (PerkinElmer, OptiPlate 96F-HB) were precoated with goat anti-TrkB (R&D systems, AF1494; 1:500, overnight, 4 °C) antibody in carbonate buffer (pH 9.8) and blocked with 3% BSA in PBS with 0.1% Tween-20 (PBS-T) for 2 h at room temperature. […] Samples were incubated overnight at 4 °C, and 24 h later plates were washed with PBS-T and incubated with either rabbit anti-phospho-TrkB(Tyr816) (Cell Signaling Technology, 4168S; 1:2,000), rabbit anti-PLCγ1 (Cell Signaling Technologies, 5690S; 1:2,000) or rabbit anti-Trk (Cell Signaling Technologies, 92991; 1:2,000) antibodies overnight at 4 °C. After washing with PBS-T, plates were incubated with HRP-conjugated goat anti-rabbit (Bio-Rad, 170–5046; 1:5,000, 1 h, room temperature) antibody, followed by more washing with PBS-T. Finally, the chemiluminescent signal was read after brief incubation with Pierce ECL substrate (Thermo Fisher Scientific, 32106). Luminescence from blank wells that contained all reagents but the sample lysates was used to determine background signal.
(In an ELISA, binding on a coated surface is turned into a signal by an enzyme label.)

Experiment [2] deals with dentate granule cells (DGCs). Nature of the experiment: Long-term survival of newborn dentate granule cells (BrdU). The experiment is classed as in vivo, mouse. The settings on record: for Mean, figure 7b (survival of newborn dentate granule cells): LSD group; for e6h group mean: LSD. The protocol:
WT and Y433F^+/− male mice were administered four doses of 5-bromo-2′-deoxyuridine (BrdU, 75 mg kg^−1 per injection, every 2 h) intraperitoneally to tag newborn neurons in the hippocampus and returned to their home cage. […] Four weeks later, animals were intracardially perfused with PBS followed by 4% PFA. Brains were dissected and postfixed with 4% PFA (overnight, 4 °C). Next, brains were transferred to 30% sucrose (0.1% PBS) solution and stored at 4 °C for 48–72 h. Brains were moved into disposable vinyl specimen molds (Sakura, Tissue-Tek Cryomold standard) and covered in Tissue-Tek O.C.T. Compound (Sakura). Trays were placed on dry ice and brains covered once more in TissueTec to ensure full coverage. Once frozen, samples were stored at −80 °C. Brains were sliced coronally at 40 µm thickness, collecting every sixth slice. Slices were stored in cryoprotectant fluid (30% sucrose, 30% ethylene glycol, 1% PVP-40, and 0.05 M PB) in −20 °C until staining. Every third hippocampal slice containing dentate gyrus (DG) was collected for washing with 0.1 M PBS and staining. BrdU immunofluorescence was conducted similarly as previously reported in the literature[28] with modifications. Hippocampal slices were incubated in 2.0 M HCl (30 min, 37 °C) and washed with PBS. Slices were then incubated in 0.1 M borate buffer (pH 8.0) at room temperature for 10 min, followed by further washes in PBS and 1 h incubation in 0.1% PBS blocking buffer (0.5% Triton X-100, 5% normal donkey serum, 5% normal goat serum, 1% BSA and 0.1% gelatin). Sections were incubated with primary antibodies rat anti-BrdU (Abcam, ab6326; 1:200) and mouse anti-NeuN (Millipore, MAB377; 1:1,000) for 48 h at 4 °C with gentle shaking. Slices were then washed with PBS, followed by incubation with secondary antibodies Alexa Fluor 488 donkey anti-rat (Invitrogen, A21208; 1:300) and Alexa Fluor 568 goat-anti-mouse (Invitrogen, A11004; 1:500) for 2 h at room temperature and protected from light. Slices were washed in PBS and PB before mounting with Dako fluorescence mounting medium (Agilent, S302380-2) and slides stored at 4 °C until imaging. A total of eight slices containing both hemispheres and covering the whole DG (every third slice) were imaged with a Zeiss LSM 710 confocal microscope. Fifteen optical sections with a Z-step of 2 µm were acquired per slice with a PlanApochromat 10×/0.45 M27. BrdU^+ and BrdU^+/NeuN^+ cells in the DG were counted manually by experimenters blinded to treatment and genotype using ZEN Blue 3.2. Similarly to Ma et al.[28], we estimated the number of mature neurons (BrdU^+/NeuN^+) in the DG of both hemispheres by multiplying by 6 the total count derived from every third hippocampal slice. The percentage of mature neurons over total BrdU^+ cells in the DG was also calculated.

The test system of experiment [3] is TrkB pY816. Kind of experiment: pY816 in PFC and hippocampus after single LSD injection (ELISA, immunoblot). It counts as in vivo. To be noted: mouse brain samples, single administration. The protocol:
as §1, with “signal. […]” for “signal.”

Structures are written as SMILES.

On to `CCN(CC)C(=O)C1C=C2c3cccc4[nH]cc(c34)CC2N(C)C1` (centres unmarked) [LSD, lysergic acid diethylamide], for which the “TrkB phosphorylation (pY816)” value in experiment [1] and in experiment [3] was “increases phosphorylation of TrkB tyrosine 816 (pY816)” each time. Moreover, in experiment [2] (WT mice, 4 weeks after single administration (0.1 mg kg^−1 i.p.)), the “number of surviving DGCs” value was “doubles the number of surviving DGCs”. Besides, the entries for the “Mean, figure 7b (survival of newborn dentate granule cells)” value in experiment [2] (WT mice) and in experiment [2] (Y433F+/- mice) were 315.4 and 150, respectively. In addition, the e6h group mean in experiment [2] (WT mice, n=7) is reported as 94.67; in experiment [2] (Y433F+/- mice, n=8), 94.59. Also, the “Mean Diff., figure 7b, WT:Saline vs. WT:LSD” value in experiment [2] (WT mice, saline minus LSD, Bonferroni's multiple comparisons test) is -197.8. The “e6h Mean Diff. (Saline minus LSD)” value is -4.385 in experiment [2] (WT:Saline vs. WT:LSD, Bonferroni's multiple comparisons test) and 3.141 in experiment [2] (Y433F+/-:Saline vs. Y433F+/-:LSD, Bonferroni's multiple comparisons test). Besides, the “Mean Diff., figure 7b, Y433F+/-:Saline vs. Y433F+/-:LSD” value in experiment [2] (Y433F+/- mice, saline minus LSD, Bonferroni's multiple comparisons test) is reported as 9.6. Further, the “e6h Predicted (LS) mean of LSD” value in experiment [2] (column mean across WT and Y433F+/- mice) is on record as 94.63. Also, the “Predicted (LS) mean of LSD, figure 7b” value in experiment [2] (mean over WT and Y433F+/- mice) is on record as 232.7. Besides, in experiment [2] (means over WT and Y433F+/- mice), the “Difference between predicted means (Saline - LSD), figure 7b” value is reported as -94.11.

The record behind these values is publication PMC10244169, “Psychedelics promote plasticity by directly binding to BDNF receptor TrkB” (Nature Neuroscience, 2023).
